Laboratory results as given in ChEMBL document CHEMBL5149976, “β-Carbolines as potential anticancer agents” (Eur J Med Chem, 2021).
≈ marks a conversion by molar mass, not a printed value.

What was measured:
DU-145 = assay: Cytotoxicity against human DU-145 cells assessed as cell growth inhibition by MTT assay; type: functional, cell-based; conditions: pooled result: one value given for 5 cell lines, strains, targets or settings
A549 [1] = assay: Cytotoxicity against human A549 cells assessed as cell growth inhibition by MTT assay; type: functional, cell-based
HeLa [2] = assay: Cytotoxicity against human HeLa cells assessed as cell growth inhibition and measured after 24 hrs by MTT assay; type: functional, cell-based
HepG2 = assay: Cytotoxicity against human HepG2 cells assessed as cell growth inhibition and measured after 24 hrs by MTT assay; type: functional, cell-based; conditions: HepG2, 24 h
LoVo = assay: Cytotoxicity against human LoVo cells assessed as cell growth inhibition; type: functional, cell-based
HT-29 [3] = assay: Cytotoxicity against human HT-29 cells assessed as inhibition of cell growth measured after 48 hrs by MTT assay; type: functional, cell-based; conditions: HT-29, 48 h
HGC-27 = assay: Cytotoxicity against human HGC-27 cells assessed as inhibition of cell growth measured after 48 hrs by MTT assay; type: functional, cell-based; conditions: HGC-27, 48 h
[4] = test system: Panel NCI-60 (60 carcinoma cell lines); assay: Cytotoxicity against human Panel NCI-60 (60 carcinoma cell lines) assessed as cell growth inhibition; type: functional, cell-based
NCI-H1299 = assay: Cytotoxicity against human NCI-H1299 cells assessed as cell growth inhibition; type: functional, cell-based
HeLa [5] = assay: Cytotoxicity against human HeLa cells assessed as cell growth inhibition; type: functional, cell-based
MCF7 = assay: Cytotoxicity against human MCF7 cells assessed as cell growth inhibition; type: functional, cell-based
CCRF S-180 = assay: Antitumor activity against mouse CCRF S-180 cells allografted in ICR mouse assessed as tumor growth inhibition at 0.1 micromol/kg, iv administered for 7 days relative to control; type: functional; conditions: dose 0.1 µmol/kg, time 7 day
MOLT-4F = assay: Cytotoxicity against human MOLT-4F cells; type: functional; conditions: read-out: ED50 (the source's name)
P388 [6] = assay: Cytotoxicity against mouse P388 cells; type: functional, cell-based; conditions: read-out: ED50 (the source's name)
L1210 [7] = assay: Cytotoxicity against mouse L1210 cells; type: functional; conditions: read-out: ED50 (the source's name)
MT4 = assay: Cytotoxicity against human MT4 cells; type: functional; conditions: read-out: ED50 (the source's name)
B16 = assay: Cytotoxicity against mouse B16 cells assessed as cell growth inhibition by MTT assay; type: functional, cell-based
L1210 [8] = assay: Cytotoxicity against mouse L1210 cells assessed as cell growth inhibition; type: functional, cell-based
KB = assay: Cytotoxicity against human KB cells; type: functional, cell-based
L5178Y = assay: Cytotoxicity against mouse L5178Y cells assessed as cell growth inhibition; type: functional, cell-based
[9] = biological target: DNA topoisomerase 1 (Homo sapiens) (UniProt P11387); assay: Inhibition of topoisomerase 1 (unknown origin) assessed as relaxation of pBR322 plasmid DNA and incubated for 10 mins
DNA topoisomerase 1 (Homo sapiens), sequence (P11387 whole entry): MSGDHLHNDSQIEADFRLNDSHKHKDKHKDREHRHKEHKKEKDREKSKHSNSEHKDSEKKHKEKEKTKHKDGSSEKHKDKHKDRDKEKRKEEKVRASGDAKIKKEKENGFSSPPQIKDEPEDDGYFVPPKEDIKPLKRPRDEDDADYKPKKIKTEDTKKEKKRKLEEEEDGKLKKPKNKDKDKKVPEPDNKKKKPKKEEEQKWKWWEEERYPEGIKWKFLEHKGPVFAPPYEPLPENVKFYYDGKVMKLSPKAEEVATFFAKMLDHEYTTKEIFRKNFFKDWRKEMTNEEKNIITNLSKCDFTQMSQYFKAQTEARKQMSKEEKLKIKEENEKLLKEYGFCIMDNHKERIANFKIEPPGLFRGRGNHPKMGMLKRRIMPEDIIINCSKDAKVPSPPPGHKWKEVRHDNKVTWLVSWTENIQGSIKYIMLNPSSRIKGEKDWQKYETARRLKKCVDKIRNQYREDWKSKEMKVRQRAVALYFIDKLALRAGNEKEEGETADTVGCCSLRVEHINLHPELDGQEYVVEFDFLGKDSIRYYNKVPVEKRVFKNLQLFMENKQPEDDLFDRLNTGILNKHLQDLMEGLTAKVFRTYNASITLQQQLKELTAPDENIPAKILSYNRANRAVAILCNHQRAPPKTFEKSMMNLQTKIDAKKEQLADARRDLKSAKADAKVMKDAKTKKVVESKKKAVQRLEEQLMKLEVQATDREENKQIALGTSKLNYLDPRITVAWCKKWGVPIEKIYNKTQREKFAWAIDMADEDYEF

RPMI-8226 = assay: Cytotoxicity against human RPMI-8226 cells assessed as cell growth inhibition; type: functional, cell-based
CCRF-CEM = assay: Cytotoxicity against human CCRF-CEM cells assessed as cell growth inhibition; type: functional, cell-based
OVCAR-3 [10] = assay: Anticancer activity against human OVCAR-3 cells; type: functional
HT-29 [11] = assay: Anticancer activity against human HT-29 cells; type: functional
MDA-MB-231 = assay: Anticancer activity against human MDA-MB-231 cells; type: functional
HOP-92 = assay: Anticancer activity against human HOP-92 cells; type: functional
UACC-62 = assay: Anticancer activity against human UACC-62 cells; type: functional
M14 = assay: Anticancer activity against human M14 cells; type: functional
A-375 = assay: Cytotoxicity against human A-375 cells assessed as cell growth inhibition; type: functional, cell-based
[12] = Cytotoxicity against mouse C19 cells assessed as cell growth inhibition by MTT assay; type: functional, cell-based
[13] = Cytotoxicity against human KB-16 cells assessed as cell growth inhibition and measured after 5 hrs by MTT assay; type: functional, cell-based; conditions: KB16, 5 h
P388 [14] = assay: Cytotoxicity against mouse P388 cells assessed as cell growth inhibition and measured after 5 hrs by MTT assay; type: functional, cell-based; conditions: P388, 5 h
HT-29 [15] = assay: Cytotoxicity against human HT-29 cells assessed as cell growth inhibition and measured after 5 hrs by MTT assay; type: functional, cell-based; conditions: HT-29, 5 h
A549 [16] = assay: Cytotoxicity against human A549 cells assessed as cell growth inhibition and measured after 5 hrs by MTT assay; type: functional, cell-based; conditions: A549, 5 h
[17] = Anti-ferroptotic activity against human BJeLR cells assessed as cell growth inhibition; type: functional, cell-based
Calu-1 = assay: Anti-ferroptotic activity against human Calu-1 cells assessed as cell growth inhibition; type: functional, cell-based
[18] = In vivo antitumor activity against mouse Lewis lung carcinoma cells xenografted in mouse model assessed as inhibition of cell growth relative to control; type: functional
PC-3 = assay: Cytotoxicity against human PC-3 cells assessed as cell growth inhibition and measured after 48 hrs; type: functional, cell-based; conditions: PC-3, 48 h
OVCAR-3 [19] = assay: Cytotoxicity against human OVCAR-3 cells assessed as cell growth inhibition and measured after 48 hrs; type: functional, cell-based; conditions: OVCAR-3, 48 h
U-251 = assay: Cytotoxicity against human U-251 cells assessed as cell growth inhibition and measured after 48 hrs; type: functional, cell-based; conditions: U-251, 48 h
Calf thymus DNA [20] = assay: Stabilization of calf thymus DNA assessed as change in melting temperature; type: nucleic-acid assay; conditions: Bos taurus
Calf thymus DNA [21] = assay: Binding affinity to calf thymus DNA assessed as binding constant by spectrophotometric analysis; type: nucleic-acid assay; conditions: Bos taurus

## O=C(/C=C/c1cc2c([nH]c3ccccc32)c(-c2ccc(F)cc2)n1)c1ccco1
DU-145
  IC50: 1860 nM
A549 [1]
  IC50: 1860 nM

## COC(=O)c1cc2c([nH]c3ccccc32)c(-c2ccc(OCc3cn(-c4cccc(Cl)c4Cl)nn3)cc2)n1
HeLa [2]
  IC50: 46000 nM
HepG2
  IC50: 32000 nM

## CCCCc1nc(C(=O)O)cc2c1[nH]c1ccccc12
LoVo
  IC50: 11000 nM

## COc1cc(-c2nc(Cn3cc(CN4C(=O)c5ccc(C)cc5C4=O)nn3)cc3c2[nH]c2ccccc23)cc(OC)c1OC
HT-29 [3]
  IC50: 3670 nM
HGC-27
  IC50: < 10000 nM

## CC(=O)N1N=C(c2ccco2)CC1c1cc2c([nH]c3ccccc32)c(-c2ccc(F)cc2)n1 (stereo not given)
DU-145
  IC50: 1940 nM
A549 [1]
  IC50: 1940 nM

## O=Cc1cc2c([nH]c3ccccc32)c(-c2ccccc2)n1
[4]
  IC50: 360 nM

## COc1ccc(-c2nc(-c3nc4ccc(F)cc4[nH]3)cc3c2[nH]c2ccccc23)cc1
[4]
  IC50: 1900 nM

## c1ccc2c(c1)[nH]c1c(CNCCOCCNCc3nccc4c3[nH]c3ccccc34)nccc12
NCI-H1299
  IC50: 1600 nM

## COc1ccc(-c2c(-c3ccccc3)ncc3[nH]c4ccccc4c23)cc1
HeLa [5]
  IC50: 33600 nM
MCF7
  IC50: 20800 nM

## COc1cccc2c1C(=O)c1c(O)c3c(c(O)c1C2=O)C[C@@](O)(C(=O)CO)C[C@@H]3O[C@H]1C[C@H](N)[C@H](O)[C@H](C)O1.Cl [DOXORUBICIN HYDROCHLORIDE]
CCRF S-180
  TGI: 61.1%

## COc1ccc2c(c1)C1CCN3OCSCC(N)C3C1N2 (stereo not given)
MOLT-4F
  EC50: < 5 nM
P388 [6]
  EC50: < 5 nM
L1210 [7]
  EC50: < 5 nM
MT4
  EC50: < 5 nM

## CC[C@H](C)[C@H](NC(=O)[C@H](Cc1c[nH]c2ccccc12)NC(=O)[C@H](Cc1c[nH]c2ccccc12)NC(=O)c1cc2c([nH]c3ccccc32)c(-c2ccc(O)c(OC)c2)n1)C(=O)OCc1ccccc1
CCRF S-180
  TGI: 63.4%

## O=C(/C=C/C1Cc2c([nH]c3ccccc23)C(c2ccc(F)cc2)N1)c1ccc(F)cc1 (stereo not given)
B16
  IC50: 7340 nM
A549 [1]
  IC50: 5650 nM

## O[C@]12C=C(C3=NCCc4c3[nH]c3ccccc43)[C@@H]3CCN(CCCC/C=C\CC1)C[C@@]31C[C@@H]3/C=C\CCCCN3[C@H]12 [3,4-DIHYDROMANZAMINE A]
L1210 [8]; Mus musculus, L1210
  IC50: 4800 nM
KB
  IC50: 610 nM

## Cn1c2cnccc2c2c(Br)c(O)ccc21
L1210 [8]; Mus musculus, L1210
  IC50: 420 nM
L1210 [8]; l1210
  IC50: 360 nM
L5178Y
  IC50: 420 nM

## COc1cc(-c2nc(C(=O)N[C@@H](Cc3c[nH]c4ccccc34)C(=O)N[C@@H](Cc3c[nH]c4ccccc34)C(=O)N[C@@H](CO)C(=O)OCc3ccccc3)cc3c2[nH]c2ccccc23)ccc1O
CCRF S-180
  TGI: 62.9%

## c1ccc2c(c1)[nH]c1cnccc12
[9]
  ED50: 34.4 µg/mL (≈ 205 µM)

## COc1ccc(-c2nc(-c3nc4ccc(OC)cc4[nH]3)cc3c2[nH]c2ccccc23)cc1
RPMI-8226
  IC50: 360 nM
[4]
  IC50: 1900 nM
CCRF-CEM
  IC50: 880 nM

## CCN(CC)CCCNc1nccc2c1[nH]c1ccccc12
OVCAR-3 [10]
  GI50: 1600 nM
HT-29 [11]
  GI50: 2700 nM
MDA-MB-231
  GI50: 5200 nM
HOP-92
  GI50: 380 nM
UACC-62
  GI50: 2300 nM
M14
  GI50: 2000 nM

## c1ccc2c(c1)[nH]c1c(CNCCOCCOCCNCc3nccc4c3[nH]c3ccccc34)nccc12
A-375
  IC50: 2000 nM

## Cc1ccc(C[C@H](N)[C@@H]2NCCc3c2[nH]c2ccc(Br)cc32)cc1
L1210 [8]; Mus musculus, L1210
  IC50: 3100 nM
L1210 [8]; l1210
  IC50: 3400 nM
L5178Y
  IC50: 3100 nM

## c1ccc2c(-c3nccc4c3[nH]c3ccccc34)c[nH]c2c1
[12]
  IC50: 15600 nM

## NC1CSCON2CCC3c4ccccc4NC3C12 (stereo not given)
MOLT-4F
  EC50: 5 nM
P388 [6]
  EC50: 5 nM
L1210 [7]
  EC50: 5 nM
MT4
  EC50: 5 nM

## CCN(CC)c1ccc(C2NCCc3c2[nH]c2ccccc32)cc1 (stereo not given)
[13]
  IC50: 0.07 µg/mL (≈ 0.219 µM)
P388 [14]
  IC50: 0.07 µg/mL (≈ 0.219 µM)
HT-29 [15]
  IC50: 0.07 µg/mL (≈ 0.219 µM)
A549 [16]
  IC50: 0.07 µg/mL (≈ 0.219 µM)

## c1ccc(-c2nc(-c3nc4ccccc4[nH]3)cc3c2[nH]c2ccccc23)cc1
[4]
  IC50: 360 nM

## COC(=O)c1ccc([C@H]2c3[nH]c4ccccc4c3C[C@H](C(=O)OC)N2C(=O)CCl)cc1
[17]
  IC50: 2000 nM
Calu-1
  IC50: 20 nM

## Cc1nccc2c1[nH]c1ccccc12
[9]
  ED50: 23.8 µg/mL (≈ 131 µM)

## COC(=O)[C@@H]1Cc2c([nH]c3ccccc23)[C@@H](c2ccccc2)N1
[4]
  IC50: 360 nM

## Oc1ccc2[nH]c3c(C4=C[C@@]5(O)CC/C=C\CCCCN6CC[C@@H]4[C@]4(C[C@@H]7/C=C\CCCCN7[C@H]45)C6)nccc3c2c1 [MANZAMINE Y]
L1210 [8]; Mus musculus, L1210
  IC50: 1500 nM
KB
  IC50: 2500 nM

## Fc1ccc(-c2nc(-c3nc4ccc(Cl)cc4[nH]3)cc3c2[nH]c2ccccc23)cc1
[4]
  IC50: 1900 nM

## CNC(CSC)c1nccc2c1[nH]c1ccc(O)c(Br)c12 (stereo not given)
L1210 [8]; Mus musculus, L1210
  IC50: 1800 nM
L1210 [8]; l1210
  IC50: 2400 nM
L5178Y
  IC50: 1800 nM

## CCCCn1c2ccccc2c2ccnc(C(=O)OCCCCCCOC(=O)c3nccc4c5ccccc5n(CCCC)c34)c21
[18]
  inhibition (INH): 64.2%

## CCn1c2ccccc2c2cc(C3NCCc4c3[nH]c3ccccc43)ccc21 (stereo not given)
[13]
  IC50: < 0.001 µg/mL
P388 [14]
  IC50: < 0.001 µg/mL
HT-29 [15]
  IC50: < 0.001 µg/mL
A549 [16]
  IC50: < 0.001 µg/mL

## COc1ccc(-c2nc(C3=N/C(=C\c4ccccc4)C(=O)O3)cc3c2[nH]c2ccccc23)cc1
PC-3
  IC50: 1500 nM
OVCAR-3 [19]
  IC50: 1070 nM
U-251
  IC50: 480 nM

## COc1ccc2nc(-c3cc4c([nH]c5ccccc54)c(-c4ccc(F)c(F)c4)n3)[nH]c2c1
[4]
  IC50: 1900 nM

## COc1ccccc1-c1c(-c2ccccc2)ncc2[nH]c3ccccc3c12
HeLa [5]
  IC50: 35600 nM
MCF7
  IC50: 35300 nM

## NCCCCNC(=O)c1cc2c(cn1)[nH]c1ccccc12
Calf thymus DNA [20]
  ΔTm: 5.7 °C
Calf thymus DNA [21]
  K: 4.5 10^4/M
